Results from US20230212171A1, “ALLOSTERIC EGFR INHIBITORS AND METHODS OF USE THEREOF” (Dana-Farber Cancer Institute, Inc., priority 2020, published 2023).
pIC50: −log10 of the molar value. Counter-ions that a name gives are not always drawn. Like-named read-outs stand apart in the source and are kept apart here.

Experiments:
EGFR L858R/T790M = EGFR L858R/T790M (Homo sapiens, UniProt P00533, L858R/T790M); experiment: HTRF-based EGFR biochemical assay (L858R/T790M); settings: enzyme 0.02 nM, ATP 100 µM, 30 min preincubation
Protocol: (§1) EGFR biochemical activity measurements were carried out using the homogeneous time-resolved fluorescence (HTRF) assay (Cisbio). Inhibitors and DMSO normalizations were first dispensed to empty black low-volume 384-well plates (Corning) with D300 digital liquid dispenser (HP). All reactions were carried out at room temperature and solutions were added to plates with a Multidrop Combi Reagent Dispenser (ThermoFisher). The reaction mixture (10 µL final volume) contained 1 µM tyrosine kinase peptide-biotin substrate and mutant EGFR in a reaction buffer (50 mM HEPES pH 7.0, 5 mM MgCl2, 1 mM MnCl2, 0.01% BSA, 2 mM TCEP, 0.1 mM NaVO4). Enzyme concentrations were adjusted to accommodate varying kinase activities (L858R 0.1 nM, L858R/T790M 0.02 nM). Enzyme reaction solution (2× concentrations, 5 µL) was added to 384-well plates containing compounds and incubated for 30 mins. Enzyme reactions were initiated with the addition of 5 µL of ATP to a final concentration of 100 µM and reacted for 20 mins. Reactions were quenched with the addition of 10 µL of phospho-tyrosine antibody-Europium(III) cryptate (1-to-180 volume ratio) and Streptavidin-XL665 (46.7 nM) in EDTA-containing detection buffer, then incubated at room temperature for 1 hour, and read with a PHERAstar plate reader (excitation = 337 nm, emission = 620 nm and 665 nm). IC50 values were determined by inhibition curves (11-point curves from 1.0 µM to 0.130 nM or 23-point curves from 1.0 µM to 0.130 pM) in triplicate with non-linear least squares fit in GraphPad Prism 7.0d.

EGFR L858R = EGFR L858R (Homo sapiens, UniProt P00533, L858R); experiment: HTRF-based EGFR biochemical assay (L858R); settings: enzyme 0.1 nM, ATP 100 µM, 30 min preincubation
Protocol: as §1

[1] = molecular target: EGFR mutant L858R/T790M Ba/F3 cells (Homo sapiens, UniProt P00533, T790M/L858R, cells depend on it); experiment: Ba/F3 cell proliferation model (Cell Titer Glo), EGFR L858R/T790M; type: cell-based, murine; settings: 72 hours
From the text: (§2) The EGFR mutant L858R and L858R/T790M Ba/F3 cells have been previously described (Zhou, W., et al. Nature 462, 2009, 1070-1074). All cell lines were maintained in RPMI 1640 (Cellgro; Mediatech Inc., Herndon, CA) supplemented with 10% FBS, 100 units/mL penicillin, 100 units/mL streptomycin. The EGFR I941R mutation was introduced via site directed mutagenesis using the Quick Change Site-Directed Mutagenesis kit (Stratagene; La Jolla, CA) according to the manufacturer’s instructions. All constructs were confirmed by DNA sequencing. The constructs were shuttled into the retroviral vector JP1540 using the Cre-recombination system (Agilent Technologies, Santa Clara, CA). Ba/F3 cells were then infected with retrovirus per standard protocols, as described previously (Zhou, et al, Nature 2009). Stable clones were obtained by selection in puromycin (2 µg/ml).
(§3) Growth and inhibition of growth was assessed by the Cell Titer Glo assay (Promega, Madison, WI) and was performed according to the manufacturer’s instructions. The Cell Titer Glo assay is a luminescence-based method used to determine the number of viable cells based on quantitation of the ATP present, which is directly proportional to the amount of metabolically active cells present. Ba/F3 cells of different EGFR genotypes were exposed to compounds as a single agent or in combination with 1 µg/mL cetuximab for 72 hours and the number of cells used per experiment was determined empirically as has been previously established (Zhou, et al., Nature 2009). All experimental points were set up in triplicates in 384-well plates and all experiments were repeated at least three times. […] The curves were fitted using a non-linear regression model with a sigmoidal dose response.

[2] = molecular target: EGFR mutant L858R Ba/F3 cells (Homo sapiens, UniProt P00533, L858R, cells depend on it); experiment: Ba/F3 cell proliferation model (Cell Titer Glo), EGFR L858R; type: cell-based, murine; settings: single agent, 72 hours; read-out: Cell ICso BaF3 EGFR L858R
From the text: as §2, §3

[3] = single agent, read-out: Cell IC50 BaF3 EGFR L858R/T790M

Sequence of EGFR mutant L858R/T790M Ba/F3 cells (P00533 whole entry T790M/L858R): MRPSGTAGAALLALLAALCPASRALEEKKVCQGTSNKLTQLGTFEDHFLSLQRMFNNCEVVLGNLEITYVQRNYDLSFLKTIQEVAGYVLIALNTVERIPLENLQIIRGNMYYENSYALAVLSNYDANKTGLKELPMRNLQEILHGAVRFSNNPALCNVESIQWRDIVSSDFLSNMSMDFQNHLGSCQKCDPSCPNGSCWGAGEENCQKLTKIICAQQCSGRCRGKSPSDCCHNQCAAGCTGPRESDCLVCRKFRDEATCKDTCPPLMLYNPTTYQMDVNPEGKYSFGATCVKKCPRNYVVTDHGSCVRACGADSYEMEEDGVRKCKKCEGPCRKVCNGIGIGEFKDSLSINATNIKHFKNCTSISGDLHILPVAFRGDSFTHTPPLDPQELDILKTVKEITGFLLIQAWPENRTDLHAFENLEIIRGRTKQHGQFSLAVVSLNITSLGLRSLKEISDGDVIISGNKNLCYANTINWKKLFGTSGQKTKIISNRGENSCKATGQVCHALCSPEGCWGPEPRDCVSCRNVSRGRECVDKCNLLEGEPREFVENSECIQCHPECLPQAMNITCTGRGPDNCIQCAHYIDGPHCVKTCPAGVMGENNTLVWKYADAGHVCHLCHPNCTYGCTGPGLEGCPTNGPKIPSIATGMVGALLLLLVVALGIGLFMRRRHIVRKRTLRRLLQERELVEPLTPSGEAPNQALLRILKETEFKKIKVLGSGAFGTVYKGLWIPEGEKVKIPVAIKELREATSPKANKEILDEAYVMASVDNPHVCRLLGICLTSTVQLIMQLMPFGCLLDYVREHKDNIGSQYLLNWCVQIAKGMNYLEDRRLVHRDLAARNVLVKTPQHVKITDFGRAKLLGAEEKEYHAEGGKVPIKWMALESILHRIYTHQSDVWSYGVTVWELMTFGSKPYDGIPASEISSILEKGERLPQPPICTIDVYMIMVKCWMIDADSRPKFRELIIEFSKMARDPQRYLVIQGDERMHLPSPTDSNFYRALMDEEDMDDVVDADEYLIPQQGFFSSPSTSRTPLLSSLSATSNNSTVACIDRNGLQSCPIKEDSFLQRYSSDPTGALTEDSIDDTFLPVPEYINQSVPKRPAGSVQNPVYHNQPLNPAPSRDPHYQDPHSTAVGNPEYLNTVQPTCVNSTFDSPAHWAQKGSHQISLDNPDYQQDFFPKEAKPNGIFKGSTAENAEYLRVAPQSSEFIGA
Sequence of EGFR mutant L858R Ba/F3 cells (P00533 whole entry L858R): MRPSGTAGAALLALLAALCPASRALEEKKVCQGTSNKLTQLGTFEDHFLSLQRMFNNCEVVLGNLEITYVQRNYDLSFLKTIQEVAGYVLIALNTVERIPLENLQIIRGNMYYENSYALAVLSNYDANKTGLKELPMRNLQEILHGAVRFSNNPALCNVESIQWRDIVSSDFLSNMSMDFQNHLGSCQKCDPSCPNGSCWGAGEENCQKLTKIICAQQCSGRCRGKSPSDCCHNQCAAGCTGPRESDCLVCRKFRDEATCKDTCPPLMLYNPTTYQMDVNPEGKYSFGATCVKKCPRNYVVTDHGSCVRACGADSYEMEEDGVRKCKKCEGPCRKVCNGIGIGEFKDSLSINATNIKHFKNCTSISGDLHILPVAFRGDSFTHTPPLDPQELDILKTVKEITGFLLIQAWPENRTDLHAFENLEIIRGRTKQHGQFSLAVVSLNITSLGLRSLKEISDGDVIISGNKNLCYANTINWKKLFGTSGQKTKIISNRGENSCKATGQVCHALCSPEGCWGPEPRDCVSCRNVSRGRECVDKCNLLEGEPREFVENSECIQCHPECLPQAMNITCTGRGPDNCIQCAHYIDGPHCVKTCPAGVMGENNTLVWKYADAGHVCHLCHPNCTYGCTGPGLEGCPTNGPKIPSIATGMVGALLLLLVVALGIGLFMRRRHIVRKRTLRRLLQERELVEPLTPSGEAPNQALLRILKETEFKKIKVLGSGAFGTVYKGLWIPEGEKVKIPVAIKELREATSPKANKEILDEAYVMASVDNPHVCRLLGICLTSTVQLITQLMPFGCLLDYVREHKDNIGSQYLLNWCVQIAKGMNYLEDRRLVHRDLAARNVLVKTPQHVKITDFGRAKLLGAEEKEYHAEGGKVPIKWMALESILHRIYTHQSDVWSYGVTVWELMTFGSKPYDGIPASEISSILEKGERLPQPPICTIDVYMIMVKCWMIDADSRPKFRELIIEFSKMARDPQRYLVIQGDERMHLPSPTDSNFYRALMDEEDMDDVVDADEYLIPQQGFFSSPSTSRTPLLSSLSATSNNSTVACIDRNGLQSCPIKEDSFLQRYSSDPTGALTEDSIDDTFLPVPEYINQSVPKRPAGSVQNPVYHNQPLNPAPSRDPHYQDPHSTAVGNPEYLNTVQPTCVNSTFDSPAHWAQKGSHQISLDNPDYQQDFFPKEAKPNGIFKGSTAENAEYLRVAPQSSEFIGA
Sequence of EGFR L858R/T790M (P00533 25-1210 T790M/L858R): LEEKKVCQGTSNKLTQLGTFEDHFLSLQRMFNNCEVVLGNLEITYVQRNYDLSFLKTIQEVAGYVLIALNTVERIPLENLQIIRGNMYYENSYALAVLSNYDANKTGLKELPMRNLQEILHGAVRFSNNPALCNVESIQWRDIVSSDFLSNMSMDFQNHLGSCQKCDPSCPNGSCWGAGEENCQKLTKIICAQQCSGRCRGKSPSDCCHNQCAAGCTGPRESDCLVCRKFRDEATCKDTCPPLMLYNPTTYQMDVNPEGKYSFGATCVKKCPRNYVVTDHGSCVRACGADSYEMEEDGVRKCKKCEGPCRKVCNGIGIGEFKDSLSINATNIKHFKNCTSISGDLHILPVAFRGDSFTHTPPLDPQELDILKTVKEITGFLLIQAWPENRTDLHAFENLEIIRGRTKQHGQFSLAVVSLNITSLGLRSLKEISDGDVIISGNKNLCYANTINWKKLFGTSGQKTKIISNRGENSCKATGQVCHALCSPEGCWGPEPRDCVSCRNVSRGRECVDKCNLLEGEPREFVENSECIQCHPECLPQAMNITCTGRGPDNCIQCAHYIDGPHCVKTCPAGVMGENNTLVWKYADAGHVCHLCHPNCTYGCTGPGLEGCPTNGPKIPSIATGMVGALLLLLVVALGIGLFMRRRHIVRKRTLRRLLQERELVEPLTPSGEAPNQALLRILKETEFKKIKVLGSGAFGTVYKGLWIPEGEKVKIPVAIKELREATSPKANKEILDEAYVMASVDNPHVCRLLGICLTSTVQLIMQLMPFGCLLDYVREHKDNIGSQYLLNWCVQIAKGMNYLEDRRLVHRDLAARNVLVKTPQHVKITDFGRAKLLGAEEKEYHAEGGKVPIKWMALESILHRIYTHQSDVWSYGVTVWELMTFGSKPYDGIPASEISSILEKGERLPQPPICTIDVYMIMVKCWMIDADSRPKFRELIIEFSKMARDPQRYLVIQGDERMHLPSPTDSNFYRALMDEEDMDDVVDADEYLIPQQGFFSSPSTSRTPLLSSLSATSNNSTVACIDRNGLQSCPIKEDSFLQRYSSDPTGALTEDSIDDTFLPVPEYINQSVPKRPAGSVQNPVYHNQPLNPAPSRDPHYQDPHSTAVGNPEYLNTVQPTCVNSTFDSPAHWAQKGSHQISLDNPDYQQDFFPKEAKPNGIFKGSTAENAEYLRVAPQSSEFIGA
Sequence of EGFR L858R (P00533 25-1210 L858R): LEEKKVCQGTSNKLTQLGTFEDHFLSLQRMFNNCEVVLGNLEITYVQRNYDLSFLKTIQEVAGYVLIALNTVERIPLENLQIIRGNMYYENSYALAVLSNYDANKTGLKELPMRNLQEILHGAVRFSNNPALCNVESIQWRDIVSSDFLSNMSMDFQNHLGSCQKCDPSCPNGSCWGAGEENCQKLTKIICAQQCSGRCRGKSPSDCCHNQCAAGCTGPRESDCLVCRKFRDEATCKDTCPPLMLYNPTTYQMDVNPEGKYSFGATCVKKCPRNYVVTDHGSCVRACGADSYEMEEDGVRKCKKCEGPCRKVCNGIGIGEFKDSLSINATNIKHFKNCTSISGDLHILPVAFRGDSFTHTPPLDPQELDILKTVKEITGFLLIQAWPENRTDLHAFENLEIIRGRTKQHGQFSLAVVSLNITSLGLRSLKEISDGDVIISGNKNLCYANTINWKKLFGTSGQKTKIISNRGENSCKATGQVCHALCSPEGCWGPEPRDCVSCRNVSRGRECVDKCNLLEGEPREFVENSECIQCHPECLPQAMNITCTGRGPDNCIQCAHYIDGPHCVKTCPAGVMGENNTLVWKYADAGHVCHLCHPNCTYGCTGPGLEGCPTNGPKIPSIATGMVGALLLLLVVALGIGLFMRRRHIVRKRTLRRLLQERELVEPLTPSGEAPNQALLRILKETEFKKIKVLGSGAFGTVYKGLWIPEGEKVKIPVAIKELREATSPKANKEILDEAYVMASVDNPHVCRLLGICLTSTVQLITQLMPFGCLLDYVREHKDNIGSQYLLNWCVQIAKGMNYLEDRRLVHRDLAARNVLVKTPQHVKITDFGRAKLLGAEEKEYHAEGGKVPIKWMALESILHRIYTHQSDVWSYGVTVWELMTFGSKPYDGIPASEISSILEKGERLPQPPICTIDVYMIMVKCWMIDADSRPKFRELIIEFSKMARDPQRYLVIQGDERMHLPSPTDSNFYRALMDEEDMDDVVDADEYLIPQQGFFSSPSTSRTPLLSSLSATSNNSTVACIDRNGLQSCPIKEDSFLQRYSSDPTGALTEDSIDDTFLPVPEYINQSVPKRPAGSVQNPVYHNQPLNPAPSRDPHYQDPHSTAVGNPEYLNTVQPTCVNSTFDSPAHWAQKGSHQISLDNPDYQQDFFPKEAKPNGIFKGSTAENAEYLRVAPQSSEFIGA

Row | SMILES | pIC50 (EGFR L858R/T790M) | pIC50 (EGFR L858R) | GI50 [1, 3] [nM] | GI50 [2] [nM] | GI50 ([1]; in combination with 1 µg/mL cetuximab, read-out: Cell IC50 BaF3 EGFR L858R/T790M (+ cetux.)) [nM]
1 | CN1CCC(c2ccc(-c3cc4ccn([C@@H](c5nc6ccccc6[nH]5)c5cc(F)ccc5O)c(=O)c4s3)cc2)CC1 (single isomer, unassigned) [Compound 015] | 9.70 | 9.05 | 10 | 40 | –
2 | CN1CCC(c2ccc(-c3cc4ccn([C@H](c5nc6ccccc6[nH]5)c5cc(F)ccc5O)c(=O)c4s3)cc2)CC1 (single isomer, unassigned) [Compound 016] | 7.77 | 7.39 | – | – | –
3 | CN1CCC(c2ccc(-c3cc4c(=O)n(C(C(=O)Nc5nccs5)c5ccccc5)cnn4c3)cc2)CC1 (stereo not drawn) [Compound 001, 2-(6-(4-(1-Methylpiperidin-4-Yl)Phenyl)-4-Oxopyrrolo[2,1-f][1,2,4]-Triazin-3(4H)-Yl)-2-Phenyl-N-(Thiazol-2-yl)Acetamide;Hydrochloride] | 9.00 | 8.30 | 2300 | – | 90
4 | CN1CCC(c2ccc(-c3cc4c(=O)n(C(c5ccccc5)c5nc6ccccc6[nH]5)cnn4c3)cc2)CC1 (stereo not drawn) [Compound 002, 3-((1H-Benzo[d]Imidazol-2-Yl)(Phenyl)Methyl)-6-(4-(1-Methylpiperidin-4-Yl)Phenyl)Pyrrolo [2,1-f][1,2,4]Triazin-4(3H)-One;Hydrochloride] | < 7.00 | < 7.00 | 2630 | 2240 | –
5 | CN1CCC(c2ccc(-c3cc4ncn(C(C(=O)Nc5nccs5)c5ccccc5)c(=O)c4s3)cc2)CC1 (stereo not drawn) [Compound 003, 2-(6-(4-(1-Methylpiperidin-4-Yl)Phenyl)-4-Oxothieno[3,2-d)Pyrimidin-3(4H)-Yl)-2-Phenyl-N-(Thiazol-2-Yl)Acetamide] | 7.54 | 7.51 | 890 | 850 | –
6 | CN1CCC(c2ccc(-c3cc4ncn(C(c5ccccc5)c5nc6ccccc6[nH]5)c(=O)c4s3)cc2)CC1 (stereo not drawn) [Compound 004, 3-((1H-benzo[d]imidazol-2-yl)(phenyl)methyl)-6-(4-(1-methylpiperidin-4-yl)phenyl)thieno[3,2-d]pyrimidin-4(3H)-one] | < 7.00 | < 7.00 | 3680 | 4570 | –
7 | CN1CCC(c2ccc(-c3cc4c(=O)n(C(C(=O)Nc5nccs5)c5ccccc5)ccc4s3)cc2)CC1 (stereo not drawn) [Compound 005, 2-[2-[4-(1-methyl-4-piperidyl)phenyl]-4-oxo-thieno[3,2-c]pyridin-5-yl]-2-phenyl-N-thiazol-2-yi-acetamide] | 9.10 | 8.52 | 2040 | 1550 | –
8 | CN1CCC(c2ccc(-c3cc4c(=O)n(C(c5ccccc5)c5nc6ccccc6[nH]5)ccc4s3)cc2)CC1 (stereo not drawn) [Compound 006] | 7.72 | 7.68 | 3550 | 3130 | –
9 | CN1CCC(c2ccc(-c3cc4ccn(C(C(=O)Nc5nccs5)c5ccccc5)c(=O)c4s3)cc2)CC1 (stereo not drawn) [Compound 007, 2-[2-[4-(1-methyl-4-piperidyl)phenyl]-7-oxo-thieno[2,3-c]pyridin-6-yl]-2-phenyl-N-thiazol-2-yl-acetamide;hydrochloride] | 9.22 | 8.52 | 570 | 360 | –
10 | CN1CCC(c2ccc(-c3cc4ccn(C(c5ccccc5)c5nc6ccccc6[nH]5)c(=O)c4s3)cc2)CC1 (stereo not drawn) [Compound 008, 6-[1H-benzimidazol-2-yl(phenyl)methyl]-2-[4-(1-methyl-4-piperidyl)phenyl]thieno[2,3-c]pyridin-7-one;hydrochloride] | 7.54 | 7.57 | 1670 | 1870 | –
11 | CN1CCC(c2ccc(-c3cc4ccn(C(c5nc6ccccc6[nH]5)c5cc(F)ccc5O)c(=O)c4s3)cc2)CC1 (stereo not drawn) [Compound 009, 6-[1H-benzimidazol-2-yl-(5-fluoro-2-hydroxy-phenyl)methyl]-2-[4-(1-methyl-4-piperidyl)phenyl]thieno[2,3-c]pyridin-7-one;dihydrochloride] | 9.22 | 8.70 | 20 | 70 | –
12 | CN1CCC(c2ccc(-c3ccc4c(c3)N(C)C(=O)N(C(c3nc5ccccc5[nH]3)c3cc(F)ccc3O)C4)cc2)CC1 (stereo not drawn) [Compound 017, 3-[1H-benzimidazol-2-yl-(5-fluoro-2-hydroxy-phenyl)methyl]-1-methyl-7-[4-(1-methyl-4-piperidyl)phenyl]-4H-quinazolin-2-one;dihydrochloride] | – | – | 1090 | – | –
13 | CN1CCC(c2ccc(-c3cc4c(F)cn(C(C(=O)Nc5nccs5)c5cc(F)ccc5O)c(=O)c4s3)cc2)CC1 (stereo not drawn) [Compound 019, 2-(4-Fluoro-2-(4-(1-Methylpiperidin-4-Yl)Phenyl)-7-Oxothieno[2,3-c]Pyridin-6(7H)-Yl)-2-(5-Fluoro-2-Hydroxyphenyl)-N-(Thiazol-2-Yl)Acetamide] | 9.30 | 9.15 | – | – | –
14 | CN1CCC(c2ccc(-c3cc4c(F)cn(C(c5nc6ccccc6[nH]5)c5cc(F)ccc5O)c(=O)c4s3)cc2)CC1 (stereo not drawn) [Compound 020, 6-((1H-Benzo[d]Imidazol-2-Yl)(5-Fluoro-2-Hydroxyphenyl)Methyl)-4-Fluoro-2-(4-(1-methylpiperidin-4-Yl)Phenyl)Thieno[2,3-c]Pyridin-7(6H)-One] | 9.70 | 9.70 | – | – | –
15 | CN1CCC(c2ccc(-c3nc4c(s3)C(=O)N(C(C(=O)Nc3nccs3)c3cc(F)ccc3O)CC4)cc2)CC1 (stereo not drawn) [Compound 021, 2-(5-Fluoro-2-hydroxyphenyl)-2-(2-(4-(1-methylpiperidin-4-yl)phenyl)-4-oxo-6,7-dihydrothiazolo[5,4-c]pyridin-5(4H)-yl)-N-(thiazol-2-yl)acetamide] | 9.22 | 8.70 | – | – | –
16 | CN1CCC(c2ccc(-c3nc4c(s3)C(=O)N(C(c3nc5ccccc5[nH]3)c3cc(F)ccc3O)CC4)cc2)CC1 (stereo not drawn) [Compound 022, 5-((1H-Benzo[d]imidazol-2-yl)(5-fluoro-2-hydroxyphenyl)methyl)-2-(4-(1-methylpiperidin-4-yl)phenyl)-6,7-dihydrothiazolo[5,4-c]pyridin-4(5H)-one] | 7.96 | 7.92 | – | – | –
17 | CN1CCC(c2ccc(-c3nc4ccn(C(c5nc6ccccc6[nH]5)c5cc(F)ccc5O)c(=O)c4s3)cc2)CC1 (stereo not drawn) [Compound 023, 5-((1H-Benzo[d]imidazol-2-yl)(5-fluoro-2-hydroxyphenyl)methyl)-2-(4-(1-methylpiperidin-4-yl)phenyl)thiazolo[5,4-c]pyridin-4(5H)-one] | 8.52 | 8.15 | – | – | –
18 | [2H]C(c1nc2ccccc2[nH]1)(c1cc(F)ccc1O)n1ccc2cc(-c3ccc(C4CCN(C)CC4)cc3)sc2c1=O (stereo not drawn) [Compound 024, 6-((1H-Benzo[d]Imidazol-2-yl)(5-Fluoro-2-Hydroxyphenyl)Methyl-d)-2-(4-(1-Methylpiperidin-4-Yl)Phenyl)Thieno[2,3-c]Pyridin-7(6H)-One] | 9.15 | 8.70 | – | – | –
19 | CN1CCC(c2ccc(-c3cc4ccn(C(c5ccccc5)c5cc6ccccc6[nH]5)c(=O)c4s3)cc2)CC1 (stereo not drawn) [Compound 025, 6-((1H-Indol-2-Yl)(Phenyl)Methyl)-2-(4-(1-Methylpiperidin-4-Yl)Phenyl)Thieno[2,3-c]Pyridin-7(6H)-One] | 8.15 | 8.05 | – | – | –
